According to PubChem BioAssay (NCI):
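How tested: cells in 96-well plates exposed to compound for 48 hours at five concentrations. TGI: concentration producing complete growth inhibition.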 *1 amine or outer side, *2 acyl side, *3 side chain or, on linkers, in order; H or OH if unused. Where a SMILES comes first, the peptide text is derived from it. Bridges are numbered along the chain shown (N, C = ends). Roman numbers before positions name the chains, in order. [ ]: non-standard residue; d: D form. Actinocin(9to1) = Cc1c2oc3c(C)ccc(C(=O)[*:1])c3nc-2c(C(=O)[*:2])c(N)c1=O; X48 = O=C1CC(C(=O)[*:2])N([*:1])C1; NMeV = CN[CH](C(=O)O)C(C)C; Sar = CNCC(=O)O

Columns and labels:
Experiment in all cases: NCI-60 cell line screen, 48 h
[1] = test system: HT29 colon
[2] = test system: PC-3 prostate
[3] = test system: TK-10 renal
[4] = test system: NCI-H460 lung
[5] = test system: MCF7 breast
[6] = test system: NCI-H226 lung
[7] = test system: MDA-MB-231 breast
[8] = test system: LOX IMVI melanoma
[9] = test system: DU-145 prostate
[10] = test system: CAKI-1 renal
[11] = test system: SK-OV-3 ovarian
[12] = test system: IGROV1 ovarian
[13] = test system: SW-620 colon
[14] = test system: OVCAR-8 ovarian
[15] = test system: T-47D breast
[16] = test system: HCT-116 colon
[17] = test system: UACC-257 melanoma
[18] = test system: SNB-19 CNS
[19] = test system: SNB-75 CNS
[20] = test system: SF-268 CNS

Cc1c2oc3c(C)ccc(C(=O)NC4C(=O)NC(C(C)C)C(=O)N5CC(=O)CC5C(=O)N(C)CC(=O)N(C)C(C(C)C)C(=O)OC4C)c3nc-2c(C(=O)NC2C(=O)NC(C(C)C)C(=O)N3CC(=O)CC3C(=O)N(C)CC(=O)N(C)C(C(C)C)C(=O)OC2C)c(N)c1=O (stereo unspecified) (I: TV[X48][Sar][NMeV] / II: TV[X48][Sar][NMeV]; ester I:1-I:C, II:1-II:C; linker I:N-II:N via Actinocin(9to1); configuration not given here)
TGI [1]: > 1 µM
TGI [2]: > 1 µM
TGI [3]: > 1 µM
TGI [4]: > 1 µM
TGI [5]: > 1 µM
TGI [6]: > 1 µM
TGI [7]: > 1 µM
TGI [8]: > 1 µM
TGI [9]: > 1 µM
TGI [10]: > 1 µM
TGI [11]: > 1 µM
TGI [12]: > 1 µM
TGI [13]: > 1 µM
TGI [14]: > 1 µM
TGI [15]: > 1 µM
TGI [16]: > 1 µM
TGI [17]: > 1 µM
TGI [18]: > 1 µM

COc1ccc(C(=O)N2CCc3c([nH]c4ccccc34)C2C(=O)O)o1 (stereo unspecified)
TGI [1]: > 10 µM
TGI [2]: > 10 µM
TGI [3]: > 10 µM
TGI [5]: > 10 µM
TGI [7]: > 10 µM
TGI [9]: > 10 µM
TGI [10]: > 10 µM
TGI [11]: > 10 µM
TGI [12]: > 10 µM
TGI [13]: > 10 µM
TGI [14]: > 10 µM
TGI [15]: > 10 µM
TGI [16]: > 10 µM
TGI [17]: > 10 µM
TGI [19]: > 10 µM
TGI [20]: > 10 µM
TGI [18]: > 10 µM

O=c1c2cc([N+](=O)[O-])ccc2n(Cc2ccccc2)n1Cc1ccccc1
TGI [1]: > 31.6 µM
TGI [2]: 31 µM
TGI [3]: > 31.6 µM
TGI [4]: 26.9 µM
TGI [5]: 28.6 µM
TGI [6]: > 31.6 µM
TGI [7]: 29.1 µM
TGI [8]: > 31.6 µM
TGI [9]: > 31.6 µM
TGI [10]: > 31.6 µM
TGI [12]: > 31.6 µM
TGI [13]: > 31.6 µM
TGI [14]: 22.4 µM
TGI [15]: 24.7 µM
TGI [16]: > 31.6 µM
TGI [17]: 19.8 µM
TGI [19]: > 31.6 µM
TGI [20]: > 31.6 µM
TGI [18]: > 31.6 µM

COc1cccc2c(NNc3ccccc3)c3ccc([N+](=O)[O-])cc3nc12
TGI [1]: > 100 µM
TGI [2]: > 100 µM
TGI [3]: > 100 µM
TGI [4]: > 100 µM
TGI [5]: > 100 µM
TGI [6]: > 100 µM
TGI [7]: > 100 µM
TGI [8]: > 100 µM
TGI [9]: > 100 µM
TGI [10]: > 100 µM
TGI [11]: > 100 µM
TGI [12]: > 100 µM
TGI [13]: > 100 µM
TGI [14]: > 100 µM
TGI [15]: > 100 µM
TGI [16]: > 100 µM
TGI [17]: > 100 µM
TGI [20]: > 100 µM
TGI [18]: > 100 µM

Nc1cc2c3c(cccc3c1)C(=O)N(c1ccc(OCCN3CCCCC3)cc1)C2=O
TGI [1]: 31.9 µM
TGI [2]: 32.9 µM
TGI [3]: 31.3 µM
TGI [5]: 36.3 µM
TGI [6]: 42.1 µM
TGI [7]: 31.5 µM
TGI [8]: 35.4 µM
TGI [9]: 33.5 µM
TGI [10]: 32.4 µM
TGI [11]: 31.7 µM
TGI [12]: 34.4 µM
TGI [13]: 48.5 µM
TGI [14]: 36.4 µM
TGI [15]: 46.6 µM
TGI [16]: 51.7 µM
TGI [17]: 31.6 µM
TGI [19]: 30.6 µM
TGI [20]: 37.7 µM
TGI [18]: 32.4 µM

CC(=O)OCCCCn1cnc2nc(Nc3ccccc3)nc(Cl)c21
TGI [1]: > 100 µM
TGI [2]: > 100 µM
TGI [3]: > 100 µM
TGI [4]: > 100 µM
TGI [5]: > 100 µM
TGI [6]: > 100 µM
TGI [7]: > 100 µM
TGI [8]: > 100 µM
TGI [10]: 81.4 µM
TGI [11]: > 100 µM
TGI [12]: > 100 µM
TGI [13]: > 100 µM
TGI [14]: > 100 µM
TGI [15]: > 100 µM
TGI [16]: > 100 µM
TGI [17]: > 100 µM
TGI [19]: > 100 µM
TGI [20]: > 100 µM
TGI [18]: > 100 µM
